Source: article PMC10067956, “Pyrazole derivatives of pyridine and naphthyridine as proapoptotic agents in cervical and breast cancer cells” (Scientific Reports, 2023)
Where two headings read alike, the source gives them in different places.

What was measured:
HeLa cells [1] = experiment: LDH cytotoxicity assay, HeLa; type: cell-based; details: IC50 and 2 × IC50
Method: (§1) Briefly, 1 × 10^4 cells/well were seeded in a flat bottom 96 well cell culture plate and kept for overnight incubation. Cells were treated with potent compounds 5j and 5k at the IC50 and 2 × IC50 values. The plate was centrifuged at 1500 rpm for 3 min and the supernatant (50 µL) transferred to a new sterile 96-well plate. After addition of substrate mix (50 µL), plate was placed at room temperature for 30 min. The absorbance was measured at 490 nm and 680 nm using microplate reader (FLUOstar Omega, Ortenberg, Germany). Cytotoxicity was measured as described earlier.

herring sperm DNA = experiment: DNA binding studies (UV absorption); details: 200 µM compound; 0 to 396 µM DNA; hypochromicity, no red or blue shift
Method: A stock solution of 5 mg of DNA was prepared in 10 mL of distilled water and the purity of the DNA (A260/A280) was in the range of 1.6 to 1.9. Compound 5j was tested at a final concentration of 200 µM with varying end concentrations (0 to 396 µM) of DNA. The plate was placed at room temperature for 30 min and the UV absorption spectrum was recorded by microplate reader (FLUOstar Omega BMG Labtech, Ortenberg, Germany).

caspase-3/7 = experiment: Activated caspase-3/7 in HeLa cells; type: cell-based; details: versus control
From the text: (§2) Results were represented as fold increase in activated caspase-9 and caspase-3/7 as compared to control as previously reported.

HeLa cells [2] = experiment: Mitochondrial membrane potential (JC-1), HeLa; type: cell-based; details: IC50 and 2 × IC50, 24 h
Method: (§3) Mitochondrial membrane potential was determined by a fluorimetric method using fluorescent dye 5′,5′,6′,6′-tetrachloro-1′,1′,3′,3′-[…] (JC-1). Briefly, 1 × 10^5 cells were grown and treated with IC50 and 2 × IC50 values of compounds 5j and 5k for 24 h. Cells were harvested, pelletized and treated with 0.25 µM of fluorescent dye JC-1. Each sample was transferred to a flat-bottomed black 96-well plate, which was kept in the dark for 20 min. Fluorescence emission was measured by a fluorescent microplate reader (FLUOstar Omega BMG Labtech, Germany) at 590 nm and 520 nm for j-aggregates and j-monomers. Results were measured as ratio of red/green fluorescence as previously reported.

HeLa cells [3] = experiment: Oxidative stress (H2DCF-DA staining), HeLa; type: cell-based; details: IC50 and 2 × IC50
Method: (§4) After washing with sterile PBS, cells were fixed and 10 µL (0.01 mg/mL) of H2DCF-DA dye was added on microscopic slides. After an incubation of 10 min at room temperature in the dark, fluorescence photomicrographs were obtained as previously reported.

caspase-9 [4] = experiment: Activated caspase-9 in HeLa cells; type: cell-based; details: versus control
From the text: as §2

HeLa cells [5] = experiment: MTT cell viability assay, HeLa; type: cell-based; details: 24 h; for IC50: read-out: IC50 (µM) ± SEM, HeLa Cell Line; for inhibition at 100 µM: read-out: %Inhibition at 100 µM, HeLa cell line
Method: (§5) The anti-proliferative activity of the studied compounds was determined against breast (MCF-7) and cervical (HeLa) cancer cells by the MTT cell viability assay as described earlier[44],[45]. BHK-21 cells were used as non-cancerous cells to study the effect of these compounds on normal cells. Briefly, 1 × 10^4 cells/well were seeded in 96-well microtiter plate and placed in an incubator (Heracell™ VIOS 160i, Thermo-Fisher Scientific) set for 5% CO2 at 37 °C. The stock solutions of compounds were prepared at 10 mM concentration in DMSO. Initial working solutions were prepared in cell culture medium at 1 mM concentration. […] After 24 h, medium in each well was aspirated and cells were treated for 4 h with serum free medium containing 0.2 mg/mL MTT reagent. The solubilizing reagent (10% acidified sodium dodecyl sulfate in propanol in a 1:1 ratio) was added to solubilize formazan crystals. Plates were kept at 37 °C for 30 min and then placed on a gyratory shaker for few min for complete solubilization of formazan crystals. The optical density was measured at 570 nm by microplate reader and IC50 values were calculated from three independent experiments as previously reported.

BHK-21 cells = experiment: MTT cell viability assay, non-cancerous BHK-21; type: cell-based, Baby Hamster; details: Mesocricetus auratus, 24 h, read-out: IC50 (µM) ± SEM, BHK-21 cell line
Method: as §5

HeLa cells [6] = experiment: Cell cycle analysis by flow cytometry; type: cell-based; details: IC50 and 2 × IC50, PI staining
Method: Briefly, HeLa cells (2 × 10^5 cells/mL) were grown and treated with IC50 and 2 × IC50 values of potent compound 5j. Cells were harvested and washed three times with PBS to remove traces of cell culture medium. Cells were fixed in 70% ethanol for 24 h at − 20 °C. Pelletized cells were then re-suspended in 1 mL of a solution containing PI (20 µg/mL), RNase A (50 µg/mL) and 0.1% (v/v) Triton X-100. Samples were kept in the dark for 30 min at room temperature and analyzed within an hour as reported earlier.

HeLa cells [7] = experiment: Fluorescence microscopy of apoptosis (PI, DAPI), HeLa; type: cell-based; details: IC50 and 2 × IC50, 24 h
Method: (§6) Morphological changes in compound treated cancer cells were identified using propidium iodide (PI) and 4′,6-diamidino-2-phenylindole (DAPI) staining with observing under a fluorescence microscope (Nikon ECLIPSE Ni–U, Japan). […] After 24 h, media was aspirated, cells were washed with sterile phosphate buffered saline (PBS) and fixed by using 4% formalin and 0.1% Triton X–100 as adherent cells fixation solution. Further, 10 µL (0.01 mg/mL) of PI or DAPI solution was added on slides and kept for 10 min in dark. Fluorescence photomicrographs were captured as previously reported.

MCF-7 cells [8] = experiment: MTT cell viability assay, MCF-7; type: cell-based; details: Homo sapiens; for inhibition at 100 µM: MCF7, 100 µM, 24 h, read-out: %Inhibition at 100 µM, MCF-7 cell line
Method: as §5

HeLa cells [9] = experiment: Alkaline comet assay; type: cell-based
Method: Comet assay is a sensitive method to determine DNA damage which was performed after some modifications in a published protocol. […] The cervical cancer (HeLa) cells were treated with IC50 value of potent compound 5j for 24 h. Cells were harvested, collected and centrifuged to obtain a pellet. Pelleted cells were re-suspended in media. Untreated cells were used as control cells. For the positive control, 2 × 10^4 cells were treated with 20 µM of freshly prepared hydrogen peroxide for 30 min. Slides were prepared by coating with 1% normal melting point agarose (NMPA) on one side and then dried. Samples (2 × 10^4 cells/sample) were re-suspended in 1 mL of PBS. In a tube, 0.4 mL cell suspension was mixed with 1.2 mL of 0.9% low melting point agarose (LMPA) and mixed thoroughly by pipetting. A cell suspension of 65 µL was laid on coated slide and evenly distributed by placing a coverslip over it. Slides were placed at − 20 °C for 10 min. Then the slides were placed at 4 °C in the dark in a lysis buffer of 100 mM EDTA, 10 mM Trizma base, 2.5 M sodium chloride, 10% DMSO and 1% Triton X-100 in distilled water with a pH of 10. After an overnight incubation, slides were washed with chilled distilled water. These slides were then placed in electrophoresis chamber (Wealtec, USA) having chilled (4 °C) alkali unwinding solution (300 mM sodium hydroxide and 1 mM EDTA in distilled water). Electrophoresis was carried out at an adjusted voltage (between 0.7 and 1.0 V/cm) for 35 min in an electrophoresis tank. Slides were then immersed in neutralization solution (0.4 M Trizma base in 800 mL water, pH 7.5) for 10 min in dark. Propidium iodide (20 µL of 0.01 mg/mL) was used as fluorescent dye to stain DNA. Slides were placed in dark at room temperature. After 10 min, images were captured using a fluorescence microscope (Nikon ECLIPSE Ni–U, Japan) at an excitation/emission wavelength of 493/632 nm. Microscopic images were analyzed using ImageJ (ij152-win-java8, National Institutes of Health, Bethesda, USA) and OpenComet (OpenComet_imagej_v1.3.1, USA) where the DNA content in the head and tail of the comets were automatically measured by the software. Results of three independent experiments were expressed as tail length ([…]), %DNA in comet tail and comet tail moment.

MCF-7 cells [10] = experiment: Fluorescence microscopy of apoptosis (PI, DAPI), MCF-7; type: cell-based; details: IC50 and 2 × IC50, 24 h
Method: as §6

MCF-7 cells [11] = experiment: Mitochondrial membrane potential (JC-1), MCF-7; type: cell-based; details: IC50 and 2 × IC50, 24 h
Method: as §3

MCF-7 cells [12] = experiment: Oxidative stress (H2DCF-DA staining), MCF-7; type: cell-based; details: IC50 and 2 × IC50
Method: as §4

caspase-7 = experiment: Activated caspase-7 in MCF-7 cells; type: cell-based; details: versus control
From the text: as §2

MCF-7 cells [13] = experiment: LDH cytotoxicity assay, MCF-7; type: cell-based; details: IC50 and 2 × IC50
Method: as §1

caspase-9 [14] = experiment: Activated caspase-9 in MCF-7 cells; type: cell-based; details: versus control
From the text: as §2

[15] = 5j 6.4 µM 24 h, H2O2 20 µM 30 min (positive control)

SMILES: Cc1[nH]nc2nc(N)c3c(N)nc4ccc(F)cc4c3c12 [5j]
- leaked LDH (cytotoxic effect) (HeLa cells [1]): dose dependent increase in leaked LDH
- mode of interaction with DNA (absorption spectra) (herring sperm DNA): non-covalently bound to DNA
- fold increase in activated caspase-3/7 (caspase-3/7; at 2 × IC50, 18 h): 4.8 folds
- fold increase in activated caspase-3/7 (caspase-3/7; at IC50, 18 h): about 4 folds
- mitochondrial membrane potential, ratio of red/green fluorescence (JC-1) (HeLa cells [2]): decrease in red/green ratio
- ROS production, H2DCF-DA staining (HeLa cells [3]): ROS generation
- fold increase in activated caspase-9 (caspase-9 [4]; at 2 × IC50, 18 h): 2.2 folds
- fold increase in activated caspase-9 (caspase-9 [4]; at IC50, 18 h): 1.4 folds
- IC50 (HeLa cells [5]): 6.43 ± 0.45 µM
- inhibition at 100 µM (HeLa cells [5]; Homo sapiens): 94.8%
- IC50 (HeLa cells [5]; Homo sapiens): 6.4 ± 0.45 µM
- IC50 (BHK-21 cells): 27.5 ± 1.32 µM
- cell cycle arrest (HeLa cells [6]): G0/G1 arrest
- morphological features of apoptosis, PI and DAPI staining (HeLa cells [7]): Cell detachment, shrinkage of cells and condensation of nuclear material was observed
- inhibition at 100 µM (MCF-7 cells [8]): 47.8%
- DNA damage in comet assay (HeLa cells [9]; 6.4 µM): DNA damage in treated cells, comparable to positive control
- %DNA in tail ± SD (HeLa cells [9]; 5j 6.4 µM 24 h): 41.02 ± 7.61%
- Tail length ± SD (HeLa cells [9]; [15]): 43 ± 10.3 µm
- Tail moment ± SD (HeLa cells [9]; [15]): 23.22 ± 1.61

SMILES: Cc1[nH]nc2nc(N)c3c(N)nc4ccc(Cl)cc4c3c12 [5k]
- morphological features of apoptosis, PI and DAPI staining (MCF-7 cells [10]): Cell detachment, shrinkage of cells and condensation of nuclear material was observed
- mitochondrial membrane potential, ratio of red/green fluorescence (JC-1) (MCF-7 cells [11]): decrease in red/green ratio
- ROS production, H2DCF-DA staining (MCF-7 cells [12]): ROS generation
- inhibition at 100 µM (HeLa cells [5]; Homo sapiens): 96.4%
- IC50 (HeLa cells [5]; Homo sapiens): 7.25 ± 0.12 µM
- fold increase in activated caspase-7 (caspase-7; at 2 × IC50, 18 h): 1.8 fold
- fold increase in activated caspase-7 (caspase-7; at IC50, 18 h): 1.4 fold
- IC50 (BHK-21 cells): 8.21 ± 0.57 µM
- leaked LDH (cytotoxic effect) (MCF-7 cells [13]): dose dependent increase in leaked LDH
- fold increase in activated caspase-9 (caspase-9 [14]; at 2 × IC50, 18 h): 1.4 folds
- fold increase in activated caspase-9 (caspase-9 [14]; at IC50, 18 h): 1.1 folds
- inhibition at 100 µM (MCF-7 cells [8]): 69.5%
- IC50 (MCF-7 cells [8]; MCF7, 24 h, read-out: IC50 (µM) ± SEM, MCF-7 cell line): 2.03 ± 0.23 µM
